PMC3531552 (Cancer research, 2011)

Molecular target: T1, ABCG2 (Homo sapiens, UniProt Q9UNQ0)
T1 sequence (Q9UNQ0 1-655): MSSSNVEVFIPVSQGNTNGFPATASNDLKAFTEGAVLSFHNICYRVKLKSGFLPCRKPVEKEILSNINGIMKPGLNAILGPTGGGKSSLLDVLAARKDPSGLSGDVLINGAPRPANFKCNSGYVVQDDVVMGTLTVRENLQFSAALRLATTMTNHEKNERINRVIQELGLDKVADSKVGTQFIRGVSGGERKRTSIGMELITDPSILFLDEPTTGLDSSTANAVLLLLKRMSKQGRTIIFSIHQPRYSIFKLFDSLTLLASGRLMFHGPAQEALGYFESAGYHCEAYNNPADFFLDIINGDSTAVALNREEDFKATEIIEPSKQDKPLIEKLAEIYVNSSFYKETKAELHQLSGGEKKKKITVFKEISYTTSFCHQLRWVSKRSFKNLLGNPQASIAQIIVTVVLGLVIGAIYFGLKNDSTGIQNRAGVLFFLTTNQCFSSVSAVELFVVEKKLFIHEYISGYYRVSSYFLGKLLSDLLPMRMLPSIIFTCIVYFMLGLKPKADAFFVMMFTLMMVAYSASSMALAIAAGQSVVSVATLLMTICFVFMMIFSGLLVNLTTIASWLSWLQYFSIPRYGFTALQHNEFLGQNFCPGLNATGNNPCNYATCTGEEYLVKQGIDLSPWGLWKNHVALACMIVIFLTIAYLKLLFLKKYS
Assay: inhibition of [3H]methotrexate transport in Sf9 membrane vesicles
Format: biochemical

For `Nc1nc(Cl)nc2c1ncn2[C@@H]1O[C@H](CO)[C@@H](O)[C@@H]1F` [clofarabine], the IC50 was about 14 µM.
